Test results reported in US11530229B2, “Cyano cyclobutyl compounds for CBL-B inhibition and uses thereof” (Nurix Therapeutics, Inc., priority 2019, dated 2022).

Assays:
Cbl-b [1] = target: T1, Cbl-b (Homo sapiens (Human), UniProt Q13191); test: Cbl-b displacement assay (Cbl-b inhibition assay), Biological Example 1; format: binding
Summary of the method: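 Probe displacement read as TR-FRET (520/620 nm) after 1 h with 2 nM streptavidin-terbium and 150 nM BODIPY FL-labelled inhibitor probe, about EC40. Before that, compound in 1% DMSO sat 1 h at room temperature with N-Avitag biotinylated Cbl-b 36–427, 0.5 nM (High) or 0.125 nM (Low), in pH 7.5 HEPES buffer.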

Cbl-b [2] = target: T1, Cbl-b; test: Cbl-b displacement assay (Cbl-b inhibition assay), Biological Example 8; format: binding; conditions: 0.125 nM Cbl-b final concentration (Low), Table 4; read-out: Cbl-b IC50 (Low)
Description: (§1) Candidate compounds were evaluated for their ability to bind and inhibit Cbl-b, an E3 ubiquitin-protein ligase, as evidenced by their ability to displace a fluorophore-labeled probe bound to Cbl-b.
(§2) The ability of candidate compounds to displace a known inhibitor and thereby inhibit Cbl-b activity was measured by monitoring the interaction of Cbl-b with a fluorophore-labeled probe in the presence of the candidate compound. A truncated variant of Cbl-b (UniProt number Q13191) containing residues 36-427 and an Avitag at its N-terminus was co-expressed with BirA biotin ligase and purified using a standard protocol (see Dou et al., Nature Structural and Molecular Biology 8: 982-987, 2013; Avidity LLC).
Fluorescently-labeled inhibitor probe was synthesized and tagged with BODIPY FL. Cbl-b displacement assays were performed in a 384-well plate at room temperature in a […] by pre-incubating 0.5 nM Cbl-b or 0.125 nM Cbl-b (final concentration, indicated as “High” and “Low,” respectively) in an assay buffer containing 20 mM HEPES pH 7.5, 150 mM NaCl, 0.01% Triton X-100, 0.01% BSA, and 0.5 mM TCEP in the presence of a candidate compound in 1% DMSO (final concentration) for 1 hour. After incubation in the presence of the candidate compound, the plate was incubated for an additional one hour in the presence of an approximate EC40 binding saturation consisting of 150 nM fluorescently-labeled inhibitor probe and 2 nM Streptavidin-Terbium (Cisbio) (final concentrations). Following the one hour incubation, the plates were read for TR-FRET signal at […] using an Envision plate reader (Perkin Elmer).
(§3) The resulting data for the Cbl-b activity assays were analyzed using standard methods to determine the IC50 values for the tested compounds.

Cbl-b [3] = target: T1, Cbl-b; test: Cbl-b displacement assay (Cbl-b inhibition assay), Biological Example 12; format: binding; conditions: 0.125 nM Cbl-b final concentration (Low), Table 7; read-out: Cbl-b IC50 (Low)
Description: as §1, §2
Fluorescently-labeled inhibitor probe was synthesized and tagged with BODIPY FL. Cbl-b displacement assays were performed in a 384-well plate at room temperature in a […] by pre-incubating 0.5 nM Cbl-b or 0.125 nM Cbl-b (final concentration, indicated as “High” and “Low,” respectively) in an assay buffer containing 20 mM HEPES pH 7.5, 150 mM NaCl, 0.01% Triton X-100, 0.01% BSA and 0.5 mM TCEP in the presence of a candidate compound in 1% DMSO (final concentration) for one hour. After incubation in the presence of the candidate compound, the plate was incubated for an additional one hour in the presence of an approximate EC40 binding saturation consisting of 150 nM fluorescently-labeled inhibitor probe and 2 nM Streptavidin-Terbium (Cisbio) (final concentrations). Following the one hour incubation, the plates were read for TR-FRET signal at […] using an Envision plate reader (Perkin Elmer).
as §3

[4] = test system: primary human total T-cells; test: T-cell activation, IL-2 secretion, Biological Example 2; format: cell-based; conditions: 48 hours, fold change over baseline; for fold induction at 0.3 µM: 0.3 μM inhibitor; for fold induction at 1 µM: 1 μM inhibitor; for fold induction at 3 µM: 3 μM inhibitor
[5] = test system: primary human total T-cells; test: T-cell activation, CD25 surface staining, Biological Example 2; format: cell-based; conditions: 48 hours, fold change over baseline; for fold induction at 0.3 µM: 0.3 μM inhibitor; for fold induction at 1 µM: 1 μM inhibitor; for fold induction at 3 µM: 3 μM inhibitor
[6] = test system: primary human total T-cells; test: T-cell activation, IL-2 secretion, Biological Example 9; format: cell-based; conditions: 48 hours, fold change over baseline, Table 5; for IL-2 secretion CD3/CD28 0.3 μM / IL-2 secretion CD3/CD28 1 μM: anti-CD3 and anti-CD28 co-stimulation; for IL-2 secretion CD3/CD28 0.3 μM: 0.3 μM inhibitor; for IL-2 secretion CD3/CD28 1 μM / IL-2 secretion CD3 1 μM: 1 μM inhibitor; for IL-2 secretion CD3 1 μM / IL-2 secretion CD3 3 μM: anti-CD3 stimulation alone; for IL-2 secretion CD3 3 μM: 3 μM inhibitor
[7] = test system: primary human total T-cells; test: T-cell activation, IL-2 secretion, Biological Example 13; format: cell-based; conditions: 48 hours, fold change over baseline, Table 8; for IL-2 secretion CD3/CD28 0.3 μM / IL-2 secretion CD3/CD28 1 μM: anti-CD3 and anti-CD28 co-stimulation; for IL-2 secretion CD3/CD28 0.3 μM: 0.3 μM inhibitor; for IL-2 secretion CD3/CD28 1 μM / IL-2 secretion CD3 1 μM: 1 μM inhibitor; for IL-2 secretion CD3 1 μM / IL-2 secretion CD3 3 μM: anti-CD3 stimulation alone; for IL-2 secretion CD3 3 μM: 3 μM inhibitor
[8] = 0.125 nM Cbl-b final concentration (Low), read-out: Cbl-b activity IC50 (Low)
[9] = anti-CD3 and anti-CD28 co-stimulation
[10] = anti-CD3 and anti-CD28 co-stimulation, read-out: IL-2 secretion CD3/CD28 1 μM
[11] = anti-CD3 stimulation alone, read-out: IL-2 secretion CD3 1 μM
[12] = anti-CD3 and anti-CD28 co-stimulation, read-out: CD25 staining CD3/CD28 1 μM
[13] = anti-CD3 stimulation alone, read-out: CD25 staining CD3 1 μM

T1 sequence (Q13191 36-427): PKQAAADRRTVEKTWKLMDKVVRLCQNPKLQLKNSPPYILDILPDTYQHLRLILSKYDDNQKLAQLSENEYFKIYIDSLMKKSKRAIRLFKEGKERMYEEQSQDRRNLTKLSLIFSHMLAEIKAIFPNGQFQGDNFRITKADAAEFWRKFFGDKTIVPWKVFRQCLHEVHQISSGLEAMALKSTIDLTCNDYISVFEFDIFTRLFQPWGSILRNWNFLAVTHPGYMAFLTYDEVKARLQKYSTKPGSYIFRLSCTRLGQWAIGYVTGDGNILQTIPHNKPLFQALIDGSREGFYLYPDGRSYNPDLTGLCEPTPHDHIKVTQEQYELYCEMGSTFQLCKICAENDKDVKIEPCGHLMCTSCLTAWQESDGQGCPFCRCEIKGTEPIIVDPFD

SMILES | IC50 (Cbl-b [1]; [8]) | IC50 (Cbl-b [2]) | IC50 (Cbl-b [3]) | fold induction at 0.3 µM [4, 9] | fold induction at 1 µM [4, 10] | fold induction at 1 µM [4, 11] | fold induction at 3 µM ([4]; anti-CD3 stimulation alone) | fold induction at 0.3 µM [5, 9] | fold induction at 1 µM [5, 12] | fold induction at 1 µM [5, 13] | fold induction at 3 µM ([5]; anti-CD3 stimulation alone) | IL-2 secretion CD3/CD28 0.3 μM [6] | IL-2 secretion CD3/CD28 1 μM [6] | IL-2 secretion CD3 1 μM [6] | IL-2 secretion CD3 3 μM [6] | IL-2 secretion CD3/CD28 0.3 μM [7] | IL-2 secretion CD3/CD28 1 μM [7] | IL-2 secretion CD3 1 μM [7] | IL-2 secretion CD3 3 μM [7] | IC50 (Cbl-b [1]; read-out: IC50 values in the Cbl-b inhibition assay of Biological Example 1)
C[C@H]1CCCN(Cc2cc3c(c(C(F)(F)F)c2)CN(c2cccc([C@]4(Cc5nncn5C)C[C@@H](C#N)C4)c2)C3=O)C1 [Compound 19, (1R,3r)-3-((4-methyl-4H-1,2,4-triazol-3-yl)methyl)-3-(3-(6-(((S)-3-methylpiperidin-1-yl)methyl)-1-oxo-4-(trifluoromethyl)isoindolin-2-yl)phenyl)cyclobutane-1-carbonitrile] | < 1 nM | < 1 nM | < 1 nM | > 20 | > 20 | > 0.85 | > 0.85 | > 1.39 | > 1.39 | > 1.15 | > 1.15 | A (A indicates >15 fold) | A (A indicates >15 fold) | A (A indicates >0.66 fold) | A (A indicates >0.66 fold) | A (A indicates >15 fold) | A (A indicates >15 fold) | A (A indicates >0.66 fold) | A (A indicates >0.66 fold) | –
Cn1cnnc1C[C@]1(c2cccc(N3Cc4c(cc(CN[C@H]5CCC(F)(F)C5)cc4C(F)(F)F)C3=O)c2)C[C@H](C#N)C1 [Compound 20, (1R3r)-3-(3-(6-((((S)-3,3-difluorocyclopentyl)amino)methyl)-1-oxo-4-(trifluoromethyl)isoindolin-2-yl)phenyl)-3-((4-methyl-4H-1,2,4-triazol-3-yl)methyl)cyclobutane-1-carbonitrile] | < 1 nM | < 1 nM | < 1 nM | > 20 | > 20 | > 0.85 | > 0.85 | > 1.39 | > 1.39 | > 1.15 | > 1.15 | A (A indicates >15 fold) | A (A indicates >15 fold) | A (A indicates >0.66 fold) | A (A indicates >0.66 fold) | A (A indicates >15 fold) | A (A indicates >15 fold) | A (A indicates >0.66 fold) | A (A indicates >0.66 fold) | –
CN(Cc1cc2c(c(C(F)(F)F)c1)CN(c1cccc([C@]3(Cc4nncn4C)C[C@@H](C#N)C3)c1)C2=O)C1CC(F)(F)C1 [Compound 22, (1r,3r)-3-(3-(6-(((3,3-difluorocyclobutyl)(methyl)amino)methyl)-1-oxo-4-(trifluoromethyl)isoindolin-2-yl)phenyl)-3-((4-methyl-4H-1,2,4-triazol-3-yl)methyl)cyclobutane-1-carbonitrile] | 2 to 5 nM | – | – | ≤ 15 | ≤ 15 | 0.4 to 0.85 | 0.4 to 0.85 | > 1.39 | > 1.39 | 1 to 1.15 | 1 to 1.15 | – | – | – | – | – | – | – | – | 2 to 5 nM
